Source: paper PMC11845477, “Exploring the principles behind antibiotics with limited resistance” (Nature Communications, 2025)

How the values were obtained:
[1] = tested on: P. aeruginosa ATCC BAA-3107 (SEN) and P. aeruginosa LESB58 (MDR); experiment: Adaptive laboratory evolution (ALE), relative MIC of evolved lines; type: cell-based, Pseudomonas aeruginosa
Method in brief: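 Ten parallel populations per antibiotic–ancestor pair were evolved in MHB at 37 °C, starting near 50% growth-inhibiting drug. Every 72 h they were passaged into 0.5–2.5× increasing concentrations, keeping the highest-drug well with OD600 > 0.2.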

[2] = tested on: P. aeruginosa ATCC BAA-3107 (SEN) and P. aeruginosa LESB58 (MDR); experiment: Frequency-of-resistance (FoR) assay, relative MIC of mutants; type: cell-based, Pseudomonas aeruginosa
Method in brief: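 About 10^10 cells, grown overnight in MHB at 37 °C and washed, were plated on agar containing antibiotic at concentrations the strain is susceptible to, for 48 h at 37 °C. Ten colonies from the highest concentration were MIC-tested; relative MIC = MICevolved/MICancestor.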

[3] = PA-MDR (Pseudomonas aeruginosa LESB 58), evolved line 1
[4] = PA-MDR (Pseudomonas aeruginosa LESB 58), evolved line 6
[5] = PA-MDR, Pseudomonas aeruginosa LESB 58, evolved line 9
[6] = PA-MDR, Pseudomonas aeruginosa LESB 58, evolved line 10
[7] = PA-MDR, Pseudomonas aeruginosa LESB 58, evolved line 2
[8] = PA-MDR, Pseudomonas aeruginosa LESB 58, evolved line 3
[9] = PA-MDR, Pseudomonas aeruginosa LESB 58, evolved line 4
[10] = PA-MDR, Pseudomonas aeruginosa LESB 58, evolved line 5
[11] = PA-MDR, Pseudomonas aeruginosa LESB 58, evolved line 7
[12] = PA-MDR, Pseudomonas aeruginosa LESB 58, evolved line 8
[13] = PA-SEN, Pseudomonas aeruginosa ATCC BAA 3107, evolved line 1
[14] = PA-SEN, Pseudomonas aeruginosa ATCC BAA 3107, evolved line 2
[15] = PA-SEN, Pseudomonas aeruginosa ATCC BAA 3107, evolved line 3
[16] = PA-SEN, Pseudomonas aeruginosa ATCC BAA 3107, evolved line 4
[17] = PA-SEN, Pseudomonas aeruginosa ATCC BAA 3107, evolved line 5
[18] = PA-SEN, Pseudomonas aeruginosa ATCC BAA 3107, evolved line 6
[19] = PA-SEN, Pseudomonas aeruginosa ATCC BAA 3107, evolved line 7
[20] = PA-SEN, Pseudomonas aeruginosa ATCC BAA 3107, evolved line 8
[21] = PA-SEN, Pseudomonas aeruginosa ATCC BAA 3107, evolved line 9
[22] = PA-SEN, Pseudomonas aeruginosa ATCC BAA 3107, evolved line 10
[23] = P. aeruginosa ATCC BAA 3107 (PA-SEN), evolved line 1
[24] = P. aeruginosa ATCC BAA 3107 (PA-SEN), evolved line 2
[25] = P. aeruginosa ATCC BAA 3107 (PA-SEN), evolved line 3
[26] = P. aeruginosa LESB 58 (PA-MDR), evolved line 1
[27] = P. aeruginosa LESB 58 (PA-MDR), evolved line 2
[28] = P. aeruginosa LESB 58 (PA-MDR), evolved line 3

O=c1ccc2ncc(=O)n3c2n1C[C@H]3CN1CCC(NCc2cc3c(cn2)OCCC3)CC1 [Gepotidacin]
MIC of evolved line [1, 3]: 128 µg/mL
Relative MIC [1, 3]: 32
Relative MIC (log10) ([1]; PA-MDR (Pseudomonas aeruginosa LESB 58), evolved line 1 adapted to the named antibiotic): 1.505
Relative MIC (log10) ([1]; PA-MDR (Pseudomonas aeruginosa LESB 58), evolved line 2 adapted to the named antibiotic): 1.505
Relative MIC (log10) ([1]; PA-MDR (Pseudomonas aeruginosa LESB 58), evolved line 5 adapted to the named antibiotic): 1.505
MIC of evolved line [1, 4]: 128 µg/mL
Relative MIC [1, 4]: 32
Relative MIC (log10) ([1]; PA-MDR (Pseudomonas aeruginosa LESB 58), evolved line 7 adapted to the named antibiotic): 1.505
Relative MIC (log10) ([1]; PA-MDR (Pseudomonas aeruginosa LESB 58), evolved line 8 adapted to the named antibiotic): 1.505
Relative MIC ([1]; PA-MDR, Pseudomonas aeruginosa LESB 58, evolved line 1 versus ancestor): 32
Relative MIC ([1]; PA-MDR, Pseudomonas aeruginosa LESB 58, evolved line 2 versus ancestor): 32
Relative MIC ([1]; PA-MDR, Pseudomonas aeruginosa LESB 58, evolved line 3 versus ancestor): 32
Relative MIC ([1]; PA-MDR, Pseudomonas aeruginosa LESB 58, evolved line 4 versus ancestor): 32
Relative MIC ([1]; PA-MDR, Pseudomonas aeruginosa LESB 58, evolved line 5 versus ancestor): 32
Relative MIC ([1]; PA-MDR, Pseudomonas aeruginosa LESB 58, evolved line 6 versus ancestor): 32
Relative MIC ([1]; PA-MDR, Pseudomonas aeruginosa LESB 58, evolved line 7 versus ancestor): 32
Relative MIC ([1]; PA-MDR, Pseudomonas aeruginosa LESB 58, evolved line 8 versus ancestor): 32
MIC of evolved line [1, 5]: 64 µg/mL
Relative MIC [1, 5]: 16
Relative MIC ([1]; PA-MDR, Pseudomonas aeruginosa LESB 58, evolved line 9 versus ancestor): 16
MIC of evolved line [1, 6]: 128 µg/mL
Relative MIC [1, 6]: 32
Relative MIC ([1]; PA-MDR, Pseudomonas aeruginosa LESB 58, evolved line 10 versus ancestor): 32
MIC of evolved line [1, 7]: 128 µg/mL
Relative MIC [1, 7]: 32
MIC of evolved line [1, 8]: 128 µg/mL
Relative MIC [1, 8]: 32
MIC of evolved line [1, 9]: 128 µg/mL
Relative MIC [1, 9]: 32
MIC of evolved line [1, 10]: 128 µg/mL
Relative MIC [1, 10]: 32
MIC of evolved line [1, 11]: 128 µg/mL
Relative MIC [1, 11]: 32
MIC of evolved line [1, 12]: 128 µg/mL
Relative MIC [1, 12]: 32
Relative MIC (log10) ([1]; PA-SEN (Pseudomonas aeruginosa ATCC BAA 3107), evolved line 1 adapted to the named antibiotic): 1.806
Relative MIC (log10) ([1]; PA-SEN (Pseudomonas aeruginosa ATCC BAA 3107), evolved line 4 adapted to the named antibiotic): 1.806
Relative MIC (log10) ([1]; PA-SEN (Pseudomonas aeruginosa ATCC BAA 3107), evolved line 6 adapted to the named antibiotic): 1.806
Relative MIC (log10) ([1]; PA-SEN (Pseudomonas aeruginosa ATCC BAA 3107), evolved line 9 adapted to the named antibiotic): 1.806
Relative MIC (log10) ([1]; PA-SEN (Pseudomonas aeruginosa ATCC BAA 3107), evolved line 10 adapted to the named antibiotic): 1.806
MIC of evolved line [1, 13]: 256 µg/mL
Relative MIC [1, 13]: 64
Relative MIC ([1]; PA-SEN, Pseudomonas aeruginosa ATCC BAA 3107, evolved line 1 versus ancestor): 64
MIC of evolved line [1, 14]: 256 µg/mL
Relative MIC [1, 14]: 64
Relative MIC ([1]; PA-SEN, Pseudomonas aeruginosa ATCC BAA 3107, evolved line 2 versus ancestor): 64
MIC of evolved line [1, 15]: 128 µg/mL
Relative MIC [1, 15]: 32
Relative MIC ([1]; PA-SEN, Pseudomonas aeruginosa ATCC BAA 3107, evolved line 3 versus ancestor): 32
MIC of evolved line [1, 16]: 256 µg/mL
Relative MIC [1, 16]: 64
Relative MIC ([1]; PA-SEN, Pseudomonas aeruginosa ATCC BAA 3107, evolved line 4 versus ancestor): 64
MIC of evolved line [1, 17]: 128 µg/mL
Relative MIC [1, 17]: 32
Relative MIC ([1]; PA-SEN, Pseudomonas aeruginosa ATCC BAA 3107, evolved line 5 versus ancestor): 32
MIC of evolved line [1, 18]: 256 µg/mL
Relative MIC [1, 18]: 64
Relative MIC ([1]; PA-SEN, Pseudomonas aeruginosa ATCC BAA 3107, evolved line 6 versus ancestor): 64
MIC of evolved line [1, 19]: 256 µg/mL
Relative MIC [1, 19]: 64
Relative MIC ([1]; PA-SEN, Pseudomonas aeruginosa ATCC BAA 3107, evolved line 7 versus ancestor): 64
MIC of evolved line [1, 20]: 128 µg/mL
Relative MIC [1, 20]: 32
Relative MIC ([1]; PA-SEN, Pseudomonas aeruginosa ATCC BAA 3107, evolved line 8 versus ancestor): 32
MIC of evolved line [1, 21]: 256 µg/mL
Relative MIC [1, 21]: 64
Relative MIC ([1]; PA-SEN, Pseudomonas aeruginosa ATCC BAA 3107, evolved line 9 versus ancestor): 64
MIC of evolved line [1, 22]: 256 µg/mL
Relative MIC [1, 22]: 64
Relative MIC ([1]; PA-SEN, Pseudomonas aeruginosa ATCC BAA 3107, evolved line 10 versus ancestor): 64
MIC of evolved line [2, 23]: 64 µg/mL
Relative MIC ([2]; P. aeruginosa ATCC BAA 3107 (PA-SEN), evolved line 1, evolved vs ancestor): 16
MIC of evolved line [2, 24]: 64 µg/mL
Relative MIC ([2]; P. aeruginosa ATCC BAA 3107 (PA-SEN), evolved line 2, evolved vs ancestor): 16
MIC of evolved line [2, 25]: 64 µg/mL
Relative MIC ([2]; P. aeruginosa ATCC BAA 3107 (PA-SEN), evolved line 3, evolved vs ancestor): 16
MIC of evolved line [2, 26]: 32 µg/mL
Relative MIC ([2]; P. aeruginosa LESB 58 (PA-MDR), evolved line 1, evolved vs ancestor): 8
MIC of evolved line [2, 27]: 32 µg/mL
Relative MIC ([2]; P. aeruginosa LESB 58 (PA-MDR), evolved line 2, evolved vs ancestor): 8
MIC of evolved line [2, 28]: 16 µg/mL
Relative MIC ([2]; P. aeruginosa LESB 58 (PA-MDR), evolved line 3, evolved vs ancestor): 4

C[C@@H](O)[C@H]1C(=O)N2C(C(=O)O)=C(S[C@@H]3CN[C@H](C(=O)N(C)C)C3)[C@H](C)[C@H]12 [Meropenem]
MIC of evolved line [1, 5]: 256 µg/mL
MIC of evolved line [1, 6]: 32 µg/mL
MIC of evolved line [1, 13]: 16 µg/mL
MIC of evolved line [1, 14]: 64 µg/mL
MIC of evolved line [1, 16]: 64 µg/mL
MIC of evolved line [1, 18]: 64 µg/mL
MIC of evolved line [1, 20]: 32 µg/mL
MIC of evolved line [1, 22]: 64 µg/mL
MIC of evolved line [2, 23]: 2 µg/mL
MIC of evolved line [2, 24]: 2 µg/mL
MIC of evolved line [2, 25]: 2 µg/mL
MIC of evolved line [2, 26]: 32 µg/mL
MIC of evolved line [2, 27]: 32 µg/mL
MIC of evolved line [2, 28]: 32 µg/mL

COc1c(N2C[C@@H]3CCCN[C@@H]3C2)c(F)cc2c(=O)c(C(=O)O)cn(C3CC3)c12 [Moxifloxacin]
MIC of evolved line ([1]; PA-SEN (ATCC BAA 3107), evolved line 2): 256 µg/mL
MIC of evolved line ([1]; PA-SEN (ATCC BAA 3107), evolved line 3): 512 µg/mL
MIC of evolved line ([1]; PA-SEN (ATCC BAA 3107), evolved line 4): 128 µg/mL
MIC of evolved line ([1]; PA-SEN (ATCC BAA 3107), evolved line 6): 512 µg/mL
MIC of evolved line ([1]; PA-SEN (ATCC BAA 3107), evolved line 7): 256 µg/mL
MIC of evolved line ([1]; PA-SEN (ATCC BAA 3107), evolved line 8): 512 µg/mL
MIC of evolved line ([1]; PA-SEN (ATCC BAA 3107), evolved line 9): 256 µg/mL
MIC of evolved line ([1]; PA-SEN (ATCC BAA 3107), evolved line 10): 128 µg/mL
MIC of evolved line ([1]; PA-SEN ATCC BAA 3107, evolved line 1): 512 µg/mL
MIC of evolved line [2, 23]: 16 µg/mL
MIC of evolved line [2, 24]: 32 µg/mL
MIC of evolved line [2, 25]: 32 µg/mL
